In patent US7910746B2, “Haloalkyl carboxamides” (Bayer CropScience AG, priority 2004, dated 2011):

Test system: Sphaerotheca fuliginea
Test: Sphaerotheca test (cucumber)/protective
Format: in vivo
Settings: protective, application rate 100 g/ha, evaluation seven days after inoculation
Method: Sphaerotheca Test (Cucumber)/Protective Solvent: • 24.5 parts by weight acetone • 24.5 parts by weight dimethyl acetamide Emulsifier: 1 part by weight alkyl aryl polyglycol ether To produce an appropriate active ingredient preparation, one part by weight of the active substance is mixed with the specified quantities of solvent and emulsifying agent, and the concentrate is diluted with water to the desired concentration. Young plants are sprayed with the active ingredient preparation at the specified application rate to test the effectiveness of protection. After the sprayed coating has dried, the plants are inoculated with an aqueous spore suspension of Sphaerotheca fuliginea. Then the plants are placed in the greenhouse at about 23° C. with relative humidity of about 70%. The evaluation is performed seven days after the inoculation. A degree of effectiveness rating of 0% corresponds to the control, with 100% indicating no infestation observed.

Question: With `Cc1nn(C)c(F)c1C(=O)Nc1ccccc1CCC(C)C(F)(F)F` (stereo not drawn) [drawing 82] as the compound, how does the “Degree of effectiveness in %” value read?
Answer: 100%

Question: For `CCC(Cl)CC(C)c1ccccc1NC(=O)c1cn(C)nc1C(F)F` (stereo not drawn) [drawing 81], which “Degree of effectiveness in %” value is on record?
Answer: 100%

Question: Which “Degree of effectiveness in %” value does the source give for `CC(CCc1ccccc1NC(=O)c1cn(C)nc1C(F)F)C(F)(F)F` (stereo not drawn) [drawing 83] here?
Answer: 98%

Question: Which “Degree of effectiveness in %” value does the source give for `CCC(Cl)CC(C)c1ccccc1NC(=O)c1c(C)nn(C)c1F` (stereo not drawn) [drawing 80] here?
Answer: 95%

Test system: Alternaria solani
Test: Alternaria test (tomato)/protective
Format: in vivo
Settings: protective, application rate 750 g/ha, evaluation seven days after inoculation
Method: Alternaria Test (Tomato)/Protective Solvent: 49 parts by weight N,N-dimethyl formamide Emulsifier: 1 part by weight alkyl aryl polyglycol ether To produce an appropriate active ingredient preparation, one part by weight of the active substance is mixed with the specified quantities of solvent and emulsifying agent, and the concentrate is diluted with water to the desired concentration. Young tomato plants are sprayed with the active ingredient preparation at the specified application rate to test the effectiveness of protection. One day after treatment, the plants are inoculated with a spore suspension of Alternaria solani and are kept for 24 hours at 100% relatively humidity and 20° C. Subsequently, the plants are kept at 96% relatively humidity and a temperature of 20° C. The evaluation is performed seven days after the inoculation. A degree of effectiveness rating of 0% corresponds to the control, with 100% indicating no infestation observed.

Question: With `CCC(Cl)CC(C)c1ccccc1NC(=O)c1c(C)nn(C)c1F` (stereo not drawn) [drawing 97] as the compound, how does the “Degree of effectiveness in %” value read?
Answer: 100%

Question: For `Cc1nn(C)c(F)c1C(=O)Nc1ccc(Cl)cc1CCC(C)C(F)(F)F` (stereo not drawn), which “Degree of effectiveness in %” value is on record?
Answer: 90%

Question: Which “Degree of effectiveness in %” value does the source give for `CCC(Cl)CC(C)c1ccccc1NC(=O)c1cn(C)nc1C(F)F` (stereo not drawn) [drawing 98] here?
Answer: 95%

Test system: Puccinia recondita
Test: Puccinia test (wheat)/protective
Format: in vivo
Settings: protective, application rate 500 g/ha, evaluation ten days after inoculation
Method: Puccinia Test (Wheat)/Protective Solvent: 50 parts by weight N,N-dimethyl acetamide Emulsifier: 1 part by weight alkyl aryl polyglycol ether To produce an appropriate active ingredient preparation, one part by weight of the active substance is mixed with the specified quantities of solvent and emulsifying agent, and the concentrate is diluted with water to the desired concentration. Young plants are sprayed with the active ingredient preparation at the specified application rate to test the effectiveness of protection. After the sprayed coating has dried, the plants are sprayed with a conidia suspension of Puccinia recondita. The plants are kept in an incubator at 20° C. and 100% relatively humidity for 48 hours. Then the plants are placed in a greenhouse at a temperature of about 20° C. and a relatively humidity of 80%, in order to promote the development of rust spots. The evaluation is performed ten days after the inoculation. A degree of effectiveness rating of 0% corresponds to the control, with 100% indicating no infestation observed.

Question: Which “Degree of effectiveness in %” value does the source give for `CC(CCc1ccccc1NC(=O)c1ccccc1I)C(F)(F)F` (stereo not drawn) [drawing 94] here?
Answer: 100%

Question: With `CCC(Cl)CC(C)c1ccccc1NC(=O)c1cn(C)nc1C(F)F` (stereo not drawn) [drawing 93] as the compound, how does the “Degree of effectiveness in %” value read?
Answer: 100%

Question: Which “Degree of effectiveness in %” value does the source give for `CC(CCc1ccccc1NC(=O)c1cn(C)nc1C(F)F)C(F)(F)F` (stereo not drawn) [drawing 95] here?
Answer: 100%

Test system: not listed separately
Test: log P by HPLC on reverse phase column (C18), acid range
Format: physicochemical
Settings: pH 2.3, HPLC C18, 43° C.
Method: The specified log P values are determined by HPLC on a reverse phase column (C18) in accordance with EEC Directive 79/831 Annex V.A8. Temperature: 43° C. Eluents for the measurement in the acid range (pH 2.3): 0.1% aqueous phosphoric acid, acetonitrile; linearer gradient of 10% acetonitrile to 90% acetonitrile. Calibration is performed with unbranched alkyl-2-ones (with 3 to 16 carbon atoms) with known log P values (determination of the log P values based on retention times by linear interpolation between two sequential alkyl ketones).

Question: Which chromatographic logP does the source give for `CC(CCc1ccccc1NC(=O)c1cn(C)nc1C(F)F)C(F)(F)F` (stereo not drawn) [Example 2, 3-difluoromethyl-1-methyl-1H-pyrazole-4-carboxyic acid, [2-(4,4,4-trifluoro-3-methylbutyl)-phenyl]-amide] here?
Answer: 2.93

Question: Which chromatographic logP does the source give for `CC(CCc1cc(Cl)ccc1NC(=O)c1ccccc1C(F)(F)F)C(F)(F)F` (stereo not drawn) [Example 1, N-[4-chloro-2-(4,4,4-trifluoro-3-methylbutyl)-phenyl]-2-trifluoromethylbenzamide] here?
Answer: 4.08

Test system: Venturia inaequalis
Test: Venturia test (apple)/protective
Format: in vivo
Settings: protective, application rate 100 g/ha, evaluation ten days after inoculation
Method: Venturia Test (Apple)/Protective Solvent: • 24.5 parts by weight acetone • 24.5 parts by weight dimethyl acetamide Emulsifier: 1 part by weight alkyl aryl polyglycol ether To produce an appropriate active ingredient preparation, one part by weight of the active substance is mixed with the specified quantities of solvent and emulsifying agent, and the concentrate is diluted with water to the desired concentration. Young plants are sprayed with the active ingredient preparation at the specified application rate to test the effectiveness of protection. After the sprayed coating has dried, the plants are inoculated with an aqueous conidia suspension of the apple scab pathogen Venturia inaequalis and are then kept in an incubator at 20° C. and 100% relatively humidity for one day. Then the plants are placed in the greenhouse at about 21° C. with relative humidity of about 90%. The evaluation is performed ten days after the inoculation. A degree of effectiveness rating of 0% corresponds to the control, with 100% indicating no infestation observed.

Question: Which “Degree of effectiveness in %” value does the source give for `CC(CCc1cc(Cl)ccc1NC(=O)c1cn(C)nc1C(F)F)C(F)(F)F` (stereo not drawn) here?
Answer: 93%

Question: For `CCC(Cl)CC(C)c1ccccc1NC(=O)c1cn(C)nc1C(F)F` (stereo not drawn) [drawing 86], which “Degree of effectiveness in %” value is on record?
Answer: 100%

Question: With `CC(CCc1ccccc1NC(=O)c1cn(C)nc1C(F)F)C(F)(F)F` (stereo not drawn) [drawing 89] as the compound, how does the “Degree of effectiveness in %” value read?
Answer: 97%

Question: For `CC(CCc1ccccc1NC(=O)c1ccccc1I)C(F)(F)F` (stereo not drawn) [drawing 87], which “Degree of effectiveness in %” value is on record?
Answer: 94%

Question: With `CCC(Cl)CC(C)c1ccccc1NC(=O)c1c(C)nn(C)c1F` (stereo not drawn) [drawing 85] as the compound, how does the “Degree of effectiveness in %” value read?
Answer: 100%

Question: For `Cc1nn(C)c(F)c1C(=O)Nc1ccccc1CCC(C)C(F)(F)F` (stereo not drawn) [drawing 88], which “Degree of effectiveness in %” value is on record?
Answer: 94%

Test system: Botrytis cinerea
Test: Botrytis test (bean)/protective
Format: in vivo
Settings: protective, application rate 500 g/ha, evaluation two days after inoculation
Method: Botrytis Test (Bean)/Protective Solvent: • 24.5 parts by weight acetone • 24.5 parts by weight dimethyl acetamide Emulsifier: 1 part by weight alkyl aryl polyglycol ether To produce an appropriate active ingredient preparation, one part by weight of the active substance is mixed with the specified quantities of solvent and emulsifying agent, and the concentrate is diluted with water to the desired concentration. Young plants are sprayed with the active ingredient preparation at the specified application rate to test the effectiveness of protection. After the sprayed coating has dried, two small pieces of agar with cultured Botrytis cinerea are placed on each leaf. The inoculated plants are placed in a darkened chamber at about 20° C. and 100% relatively humidity. Two days after the inoculation, the size of the infestation spots on the leaves is evaluated. A degree of effectiveness rating of 0% corresponds to the control, with 100% indicating no infestation observed.

Question: Which “Degree of effectiveness in %” value does the source give for `CCC(Cl)CC(C)c1ccccc1NC(=O)c1c(C)nn(C)c1F` (stereo not drawn) [drawing 90] here?
Answer: 82%

Question: For `CC(CCc1ccccc1NC(=O)c1cn(C)nc1C(F)F)C(F)(F)F` (stereo not drawn) [drawing 92], which “Degree of effectiveness in %” value is on record?
Answer: 99%

Question: With `CCC(Cl)CC(C)c1ccccc1NC(=O)c1cn(C)nc1C(F)F` (stereo not drawn) [drawing 91] as the compound, how does the “Degree of effectiveness in %” value read?
Answer: 100%
